“And” between values parts separate entries of the source, which are not always exact repeats. Equal entries are not always repeated.
How the values were obtained:
Format in all cases: in vivo, rat
rats [1] = test: Colon propulsion, glass bead expulsion from distal colon (Raffa et al.; Lopez)
Description: (§1) Intestinal transit, colon peristalsis and the amount of stool expelled have been evaluated on rats, after the administration of different individual doses of macrogol and sodium hyaluronate and of the combination of the invention.
In this case all the values are significant with respect to the same treatment without water. […] Analogously to what observed in tab. […] The reduction of expulsion time results to be dose dependent, being in all the cases clearly evident and statistically significant with respect to the PEG+water dose. […] Propulsion of distal colon has been measured according to the method of Raffa et al. (Life Sci., 41: 2229-34, 1987) and of Lopez (Dig. Dis. Sci., 29:551, 1984). 30 min after the administration of the preparations, a 5 mm diameter glass bead has been inserted in the distal colon of each rat at 3 cm from the anus. The parameter taken as the reference was the time required by each rat to expel the bead. The lower the expulsion time, the highest the colon propulsion.

rats [2] = test: Evaluation of the amount of stool (number of expelled pellets)
Procedure: as §1
In Table 3 it is possible to observe an increase in the number of expelled pellets from the rat after the PEG (365-1460 mg/kg p.o. without water and […] p.o. with water) and 20-50 mg/kg hyaluronate treatment in both conditions. […] A greater number of expelled pellets have been induced by the combination of 730 mg/kg p.o. PEG with 30 and 50 mg/kg p.o. sodium hyaluronate+water. […] By administering a dose of 487 mg/kg PEG+50 mg/kg p.o. sodium hyaluronate+water, the number of expelled pellets is equal to that one that can be observed with 730 mg/kg p.o. PEG and 30 mg/kg p.o. sodium hyaluronate. […] The stool expulsion has been monitored for each rat, starting from 1 h after the administration of the preparations (Martinez e Taché, Brain Res. 893: 29-35, 2001).

rats [3] = test: Intestinal transit, activated carbon feed (method of Schulz et al); settings: for % of increase of intestinal transit with respect to: rats
Procedure: as §1
On the other hand, such a parameter is increased with a dose-response behavior at the same doses by adding 0.3 ml of water administered per os. as well. In fact, the percentage increase values range from +10% at the 365 mg/kg p.o. dose of PEG to +23% at the 1560 mg/kg p.o. dose. […] Interesting results, under the same experimental conditions, have been obtained with the combination of PEG and sodium hyaluronate.
The experiment has been carried out following the method of Schulz et al (NS Arch. Pharmacol. 308:255-260, 1979) by using an activated carbon feed. 1.5 ml of a 20% (w/v) activated carbon suspension in a 5% (w/v) gum arabic solution has been administered by gavage to 24 hrs starved rats with free access to water. The rats have been sacrificed 10 min after receiving the activated carbon feed and their intestine has been completely removed. The transit in the small intestine has been calculated for each rat as the ratio between the traveled distance of the activated carbon feed and the total length of the intestine itself. Data are expressed as the percentage of transit in treated rats with respect to controls that have been considered as 100. Administration of the preparations occurred 30 min before sacrificing the animal.

[4] = 20 mg/kg p.o. IALURONATE, no water
[5] = 30 mg/kg p.o. IALURONATE, no water
[6] = 50 mg/kg p.o. IALURONATE, no water

Question: Which results are given for polyethylene glycol [PEG]?
Answer: Bead Expulsion time (rats [1]; 365 mg/kg p.o. PEG + Water 0.3 ml, rats): 153 ± 13 s; Bead Expulsion time (rats [1]; 365 mg/kg p.o. PEG, no water, rats): 202 ± 11 s; Bead Expulsion time (rats [1]; 487 mg/kg p.o. PEG + Water 0.3 ml, rats): 135 ± 19 s; Bead Expulsion time (rats [1]; 730 mg/kg p.o. PEG + Water 0.3 ml, rats): 128 ± 16 s; Bead Expulsion time (rats [1]; 730 mg/kg p.o. PEG, no water, rats): 181 ± 9 s; Bead Expulsion time (rats [1]; 973 mg/kg p.o. PEG + Water 0.3 ml, rats): 116 ± 18 s; Bead Expulsion time (rats [1]; 973 mg/kg p.o. PEG, no water, rats): 185 ± 12 s; Bead Expulsion time (rats [1]; 1460 mg/kg p.o. PEG, no water, rats): 173 ± 15 s; Bead Expulsion time (rats [1]; 1560 mg/kg p.o. PEG + Water 0.3 ml, rats): 93 ± 9 s; colon propulsion activity (rats [1]; PEG 365 to 1560 mg/kg p.o. with simultaneous intake of water, vs same treatment without water, rats): statistically significant effect; colon propulsion activity (rats [1]; PEG alone, without simultaneous administration of water by gavage, rats): does not modify; No of pellets after 60 min (rats [2]; 365 mg/kg p.o. PEG + Water 2 ml): 0; No of pellets after 60 min (rats [2]; 365 mg/kg p.o. PEG, no water): 0; No of pellets after 60 min (rats [2]; 487 mg/kg p.o. PEG + Water 2 ml): 2; No of pellets after 60 min (rats [2]; 730 mg/kg p.o. PEG + Water 2 ml): 3; No of pellets after 60 min (rats [2]; 730 mg/kg p.o. PEG, no water): 0; No of pellets after 60 min (rats [2]; 973 mg/kg p.o. PEG + Water 2 ml): 3; No of pellets after 60 min (rats [2]; 973 mg/kg p.o. PEG, no water): 1; No of pellets after 60 min (rats [2]; 1460 mg/kg p.o. PEG, no water): 1; No of pellets after 60 min (rats [2]; 1560 mg/kg p.o. PEG + Water 2 ml): 3; % of increase of intestinal transit with respect to (rats [3]; 365 mg/kg p.o. PEG + Water 0.3 ml): 10% and 10.8%; % of increase of intestinal transit with respect to (rats [3]; 365 mg/kg p.o. PEG, no water): 9.4%; % of increase of intestinal transit with respect to (rats [3]; 487 mg/kg p.o. PEG + Water 0.3 ml): 11.5%; % of increase of intestinal transit with respect to (rats [3]; 730 mg/kg p.o. PEG + Water 0.3 ml): 15.3%; % of increase of intestinal transit with respect to (rats [3]; 730 mg/kg p.o. PEG, no water): 6.7%; % of increase of intestinal transit with respect to (rats [3]; 973 mg/kg p.o. PEG + Water 0.3 ml): 18.6%; % of increase of intestinal transit with respect to (rats [3]; 973 mg/kg p.o. PEG, no water): 8.8%; % of increase of intestinal transit with respect to (rats [3]; 1460 mg/kg p.o. PEG, no water): 8.6%; % of increase of intestinal transit with respect to (rats [3]; 1560 mg/kg p.o. PEG + Water 0.3 ml): 23% and 23.2%; intestinal motility (rats [3]; PEG by gavage, 365 to 1460 mg/kg p.o., without water, rat): does not induce a significant increase

Question: sodium hyaluronate [IALURONATE] was tested. Which “Bead Expulsion time” value (rats [1]; 20 mg/kg p.o. IALURONATE + Water 0.3 ml, rats) did it give?
Answer: 129 ± 14 s

Question: And the “Bead Expulsion time” value (rats [1]; 20 mg/kg p.o. IALURONATE, no water, rats)?
Answer: 195 ± 12 s

Question: What about the “Bead Expulsion time” value (rats [1]; 30 mg/kg p.o. IALURONATE + Water 0.3 ml, rats) of the same substance?
Answer: 120 ± 11 s

Question: And the “Bead Expulsion time” value (rats [1]; 30 mg/kg p.o. IALURONATE, no water, rats)?
Answer: 191 ± 16 s

Question: What about the “Bead Expulsion time” value (rats [1]; 50 mg/kg p.o. IALURONATE + Water 0.3 ml, rats) of the same substance?
Answer: 114 ± 15 s

Question: And the “Bead Expulsion time” value (rats [1]; 50 mg/kg p.o. IALURONATE, no water, rats)?
Answer: 188 ± 21 s

Question: What about the “expulsion time of the bead” value (rats [1]; sodium hyaluronate 20-50 mg/kg p.o. by gavage, no water, rats) of the same substance?
Answer: does not modify

Question: And the “expulsion time of the bead” value (rats [1]; sodium hyaluronate 20-50 mg/kg p.o., rat intakes water (0.2 ml))?
Answer: the effect is very evident

Question: What about the “No of pellets after 60 min” value (rats [2]; 20 mg/kg p.o. IALURONATE + Water 2 ml) of the same substance?
Answer: 2

Question: What about the “No of pellets after 60 min” value (rats [2]; [4]) of the same substance?
Answer: 0

Question: What about the “No of pellets after 60 min” value (rats [2]; 30 mg/kg p.o. IALURONATE + Water 2 ml) of the same substance?
Answer: 2

Question: And the “No of pellets after 60 min” value (rats [2]; [5])?
Answer: 1

Question: And the “No of pellets after 60 min” value (rats [2]; 50 mg/kg p.o. IALURONATE + Water 2 ml)?
Answer: 3

Question: And the “No of pellets after 60 min” value (rats [2]; [6])?
Answer: 1

Question: What about the “% of increase of intestinal transit with respect to” value (shortened to “% of increase of intestinal transit”) (rats [3]; 20 mg/kg p.o. IALURONATE + Water 0.3 ml) of the same substance?
Answer: 17.0%

Question: What about the “% of increase of intestinal transit” value (rats [3]; [4]) of the same substance?
Answer: 0%

Question: What about the “% of increase of intestinal transit” value (rats [3]; 30 mg/kg p.o. IALURONATE + Water 0.3 ml) of the same substance?
Answer: 19.6%

Question: What about the “% of increase of intestinal transit” value (rats [3]; [5]) of the same substance?
Answer: 3.8%

Question: And the “% of increase of intestinal transit” value (rats [3]; 50 mg/kg p.o. IALURONATE + Water 0.3 ml)?
Answer: 20.3%

Question: What about the “% of increase of intestinal transit” value (rats [3]; [6]) of the same substance?
Answer: 4.2%

Question: And the intestinal transit (rats [3]; sodium hyaluronate 20-50 mg/kg p.o., without simultaneous intake of water, rat)?
Answer: does not induce an increase
